# Reference: patent US20050136015A1, “Topical use of halosalicylic acid derivatives” (priority 2003, published 2005)
# Experiments:
# Propionibacterium acnes = test: Zone of Inhibition Test; format: cell-based; settings: for Diameter of Zone of Inhibition: P. acnes, 1000 μl, isopropyl palmitate solvent
# [1] = test system: Staphylococcus epidermidis; test: Zone of Inhibition Test; format: cell-based; settings: S. epidermidis, 1000 μl, isopropyl palmitate solvent
# Staphylococcus aureus = test: Zone of Inhibition Test; format: cell-based; settings: S. aureus, 1000 μl, isopropyl palmitate solvent
# Escherichia coli = test: Zone of Inhibition Test; format: cell-based; settings: E. coli, 1000 μl, isopropyl palmitate solvent
# Pseudomonas aeruginosa = test: Zone of Inhibition Test; format: cell-based; settings: P. aeruginosa, 1000 μl, isopropyl palmitate solvent
# Candida albicans = test: Zone of Inhibition Test; format: cell-based; settings: C. albicans, 1000 μl, isopropyl palmitate solvent
# Aspergillus niger = test: Zone of Inhibition Test; format: cell-based; settings: A. niger, 1000 μl, isopropyl palmitate solvent
# skin surface = test: Exfoliation (desquamation) activity, D-SQUAME skin surface sampling discs; format: in vivo; settings: for D-SQUAME Score: scoring scale 0 to 5
# Text: D-SQUAME skin surface sampling Discs (CuDerm Corporation) were employed. The disc was applied to a clean, dry skin surface and pressed firmly for a few seconds using the thumb or fingertips. The disc was then transferred to a black square on the storage card. The disc was viewed at an angle with strong light and compared with 5 reference patterns provided by CuDerm Corporation. Very dry skin produces a heavy amount of scaling similar to pattern 5. Normal skin produces a few areas of small clumps of cells or a fine even single layer of cells. The scoring scale employed was as follows: [table] […] The vehicle was tested, as a control. The vehicle (ANEW All-In-One SPF-15 Self-Adjusting Perfecting Creme base without the glycolic acid) employed was the same in all cases, only the test compound(s) differed.
# [2] = Skin irritation (PII) of test formulation; format: in vivo
# [3] = test system: all of the test microorganisms; test: MLC test, summary over all test microorganisms; format: cell-based; settings: against all of the test microorganisms of Table 1
# Salmonella typhimarium = settings: literature report; cited from earlier work
# [4] = 0.5% active in ANEW creme base vehicle
# [5] = 0.5% active in ANEW creme base vehicle without glycolic acid
smiles,measurement,setting,value
"O=C(O)c1ccccc1O [Salicylic Acid, salicylic acid]",Diameter of Zone of Inhibition,Propionibacterium acnes; 0.83%,0 Millimeters
same,Diameter of Zone of Inhibition,Propionibacterium acnes; 1.66%,15.39 Millimeters
same,Diameter of Zone of Inhibition,[1]; 0.83%,4.5 Millimeters
same,Diameter of Zone of Inhibition,[1]; 1.66%,13.62 Millimeters
same,Diameter of Zone of Inhibition,Staphylococcus aureus; 0.83%,0 Millimeters
same,Diameter of Zone of Inhibition,Staphylococcus aureus; 1.66%,6.38 Millimeters
same,Diameter of Zone of Inhibition,Escherichia coli; 0.83%,0 Millimeters
same,Diameter of Zone of Inhibition,Escherichia coli; 1.66%,3.67 Millimeters
same,Diameter of Zone of Inhibition,Pseudomonas aeruginosa; 0.83%,0 Millimeters
same,Diameter of Zone of Inhibition,Pseudomonas aeruginosa; 1.66%,0 Millimeters
same,Diameter of Zone of Inhibition,Candida albicans; 0.83%,4.6 Millimeters
same,Diameter of Zone of Inhibition,Candida albicans; 1.66%,11.16 Millimeters
same,Diameter of Zone of Inhibition,Aspergillus niger; 0.83%,0 Millimeters
same,Diameter of Zone of Inhibition,Aspergillus niger; 1.66%,6.72 Millimeters
same,D-SQUAME Score,skin surface; [4],1.97
same,D-SQUAME Score,skin surface; 1% active in ANEW creme base vehicle,2.28
same,D-SQUAME Score,skin surface; 2.% active in ANEW creme base vehicle,2.56
same,PII (skin irritation),[2]; [5],0.00
same,PII (skin irritation),[2]; 1% active in ANEW creme base vehicle without glycolic acid,0.00
same,PII (skin irritation),[2]; 2.% active in ANEW creme base vehicle without glycolic acid,0.00
same,Bacteriocidal activity (in words),[3],bacteriocidal against all of the test microorganisms
"O=C(O)c1cc(Cl)ccc1O [5-Chlorosalicylic Acid, 5-chlorosalicylic acid]",Diameter of Zone of Inhibition,Propionibacterium acnes; 0.5%,4.87 Millimeters
same,Diameter of Zone of Inhibition,Propionibacterium acnes; 1.0%,17.62 Millimeters
same,Activity against Propionibacterium acnes compared with salicylic acid,Propionibacterium acnes; results of Tables 2 through 4,more active
same,Diameter of Zone of Inhibition,[1]; 0.5%,3.59 Millimeters
same,Diameter of Zone of Inhibition,[1]; 1.0%,13.15 Millimeters
same,Diameter of Zone of Inhibition,Staphylococcus aureus; 0.5%,0 Millimeters
same,Diameter of Zone of Inhibition,Staphylococcus aureus; 1.0%,3.04 Millimeters
same,Diameter of Zone of Inhibition,Escherichia coli; 0.5%,0 Millimeters
same,Diameter of Zone of Inhibition,Escherichia coli; 1.0%,0 Millimeters
same,Diameter of Zone of Inhibition,Pseudomonas aeruginosa; 0.5%,0 Millimeters
same,Diameter of Zone of Inhibition,Pseudomonas aeruginosa; 1.0%,0 Millimeters
same,Diameter of Zone of Inhibition,Candida albicans; 0.5%,0 Millimeters
same,Diameter of Zone of Inhibition,Candida albicans; 1.0%,2.96 Millimeters
same,Diameter of Zone of Inhibition,Aspergillus niger; 0.5%,0 Millimeters
same,Diameter of Zone of Inhibition,Aspergillus niger; 1.0%,3.38 Millimeters
same,D-SQUAME Score,skin surface; [4],2.44
same,Exfoliation activity compared with 0.5% salicylic acid,"skin surface; D-SQUAME, Table 5",significantly more exfoliating
same,Exfoliation activity compared with 1.0% salicylic acid,"skin surface; D-SQUAME, Table 5",equivalent in exfoliation activity
same,Exfoliation activity compared with 2.0% salicylic acid,"skin surface; D-SQUAME, Table 5",equivalent in exfoliation activity
same,Exfoliation activity compared with the base vehicle (containing no CLSA or SA),"skin surface; D-SQUAME, Table 5",significantly more exfoliating
same,Exfoliation activity compared with the combination of 0.5% chlorosalicylic acid/0.5% salicylic acid,"skin surface; D-SQUAME, Table 5",equivalent in exfoliation activity
same,PII (skin irritation),[2]; [5],0.00
same,Mutagenic activity,Salmonella typhimarium,non-mutagenic
